# Values of other authors as cited in patent US20210181182A1, “METHOD FOR IDENTIFICATION OF PERTURBAGENS OF PARTICULAR BIOLOGICAL PROCESSES AND CELL SYSTEMS WITHIN LIVING CELLS” (priority 2018, published 2021).
# Marks after values point to notes of the source that are not given here.
# Tested on: mitochondria membrane potential
# Conditions: HepG2, 1-hour incubation at concentrations below 60 μM; cited from earlier work
row,SMILES,MMP assay hitCall
1,C[C@@]1(c2ccc(Oc3ccccc3)cc2)OC(=O)N(Nc2ccccc2)C1=O (racemic) [Famoxadone],1
2,"COC(C=C(C)CCC=C(C)C)OC [1,1-Dimethoxy-3,7-dimethylocta-2,6-diene]",0
3,CCC(=O)C=Cc1ccc(OC)cc1 [1-(4-Methoxyphenyl)-1-pentene-3-one],0
4,Fc1cccc(Cl)c1CCl [1-Chloro-2-(chloromethyl)-3-fluorobenzene],0
5,"CC(C)(C)C(=O)CCl [1-Chloro-3,3-dimethyl-butan-2-one]",0
6,CCCCCCCCCCCCN1CCCC1=O [1-Dodecyl-2-pyrrolidinone],0
7,C=CC(O)CCCCC (stereo not drawn) [1-Octen-3-ol],0
8,"c1cc(C(c2ccc(OCC3CO3)cc2)c2ccc(OCC3CO3)cc2)ccc1OCC1CO1 (stereo not drawn) [2,2′,2″-[Methanetriyltris(benzene-4,1-diyloxymethanediyl)]trioxirane]",0
9,"Oc1c(Br)cc(Br)cc1Br [2,4,6-Tribromophenol]",1
10,"CC=CC=CCOC(=O)C(C)C [2,4-Hexadienyl isobutyrate]",0
11,"CCC(C)(C)c1cc(O)c(C(C)(C)CC)cc1O [2,5-Bis(2-methylbutan-2-yl)benzene-1,4-diol]",1
12,"CC(C)(C)c1cc(O)c(C(C)(C)C)cc1O [2,5-Di-tert-butylbenzene-1,4-diol]",1
13,"CC(C)(C)c1cc([N+](=O)[O-])cc(C(C)(C)C)c1O [2,6-Di-tert-butyl-4-nitrophenol]",1
14,C=CC(=O)OCCOCCOCC [2-(2-Ethoxyethoxy)ethyl prop-2-enoate],0
15,Cl.ClCc1ccccn1 [2-(Chloromethyl)pyridine hydrochloride],0
16,Oc1ccc(-c2ccccc2)cc1Cl [2-Chloro-4-phenylphenol],1
17,O=C(CCl)Nc1ccccc1 [2-Chloro-N-phenylacetamide],0
18,O=C(CCl)c1ccccc1 [2-Chloroacetophenone],0*
19,C=CC(=O)OCCC#N [2-Cyanoethyl prop-2-enoate],0
20,C=CC(=O)OCCO [2-Hydroxyethyl acrylate],0*

row,SMILES,MMP assay hitCall
1,COc1cc(C)ccc1O [2-Methoxy-4-methylphenol],0
2,COc1ccc(O)c(C(C)(C)C)c1 [2-tert-Butyl-4-methoxyphenol],1
3,"N#Cc1nc(Cl)c(Cl)c(Cl)c1Cl [3,4,5,6-Tetrachloro-2-pyridinecarbonitrile]",1
4,"CC(C)=CCCC(C)=CC=O [3,7-Dimethyl-2,6-octadienal]",0
5,Cl.ClCc1cccnc1 [3-(Chloromethyl)pyridine hydrochloride],0
6,Oc1ccc2c(c1)-c1ccccc1C2 [3-Hydroxyfluorene],1
7,"CC(C)CC(C)(c1ccc(O)cc1)c1ccc(O)cc1 [4,4′-(4-Methylpentane-2,2-diyl)diphenol]",1
8,Cl.Nc1ccc(-c2ccccc2)cc1 [4-Biphenylamine hydrochloride],0
9,C=Cc1ccc(OC(C)=O)cc1 [4-Ethenylphenyl acetate],0
10,CCCCCCc1ccc(O)cc1O [4-Hexylresorcinol],1
11,CCCCCCCCCc1ccc(O)cc1 [4-Nonylphenol],1
12,CCCc1ccc(O)cc1 [4-Propylphenol],1
13,CCc1cccc(CC)c1N(COC)C(=O)CCl [Alachlor],0*
14,C=CCC1=C(C)C(OC(=O)C2C(C=C(C)C)C2(C)C)CC1=O (stereo not drawn) [Allethrin],1
15,Clc1nc(Cl)nc(Nc2ccccc2Cl)n1 [Anilazine],0
16,CNC(=O)Oc1cccc2c1OC(C)(C)O2 [Bendiocarb],0
17,CCCCN(CC)c1c([N+](=O)[O-])cc(C(F)(F)F)cc1[N+](=O)[O-] [Benfluralin],0
18,CC1COc2ccccc2N1C(=O)C(Cl)Cl (stereo not drawn) [Benoxacor],0
19,CCCCCCCCCCCC[N+](C)(C)Cc1ccccc1.[Cl-] [Benzyldimethyldodecylammonium chloride],1
20,O=c1[nH]c2ccc([S+]([O-])CCN3CCC(Cc4ccc(F)cc4)CC3)cc2o1 (stereo not drawn) [Besonprodil],0

row,SMILES,MMP assay hitCall
1,COc1ccc(-c2ccccc2)cc1NNC(=O)OC(C)C [Bifenazate],1
2,CCC(C)c1cc([N+](=O)[O-])cc([N+](=O)[O-])c1OC(=O)C=C(C)C (stereo not drawn) [Binapacryl],1
3,c1cc(OCC2CO2)ccc1Cc1ccc(OCC2CO2)cc1 (stereo not drawn) [Bis[4-(glycidyloxy)phenyl]methane],0
4,CC(C)(c1ccc(O)cc1)c1ccc(O)cc1 [Bisphenol A],1
5,"Oc1c(Cl)cc(Cl)cc1Sc1cc(Cl)cc(Cl)c1O [Bithionol, reference compound]",1
6,N#Cc1cc(Br)c(O)c(Br)c1 [Bromoxynil],1
7,CCC(C)Nc1c([N+](=O)[O-])cc(C(C)(C)C)cc1[N+](=O)[O-] (stereo not drawn) [Butralin],0
8,CCOP(=S)(OCC)OC(Cl)C(Cl)(Cl)Cl (stereo not drawn) [Chlorethoxyfos],1
9,CCOCn1c(-c2ccc(Cl)cc2)c(C#N)c(Br)c1C(F)(F)F [Chlorfenapyr],1
10,Oc1ccc(Cl)cc1Cc1ccccc1 [Clorophene],1
11,Cc1ccc(-c2c(Cl)nc(C#N)n2S(=O)(=O)N(C)C)cc1 [Cyazofamid],1
12,Cc1cc(C2CC2)nc(Nc2ccccc2)n1 [Cyprodinil],0
13,"CC(=O)O[C@]1(C(C)=O)CC[C@H]2[C@@H]3C=C(Cl)C4=CC(=O)[C@@H]5C[C@@H]5[C@]4(C)[C@H]3CC[C@@]21C [Cyproterone acetate, reference compound]",1
14,CN1CSC(=S)N(C)C1 [Dazomet],0
15,CCOC(=O)Nc1cccc(OC(=O)Nc2ccccc2)c1 [Desmedipham],1
16,CCCCOC(=O)c1ccccc1C(=O)OCCCC [Dibutyl phthalate],0*
17,COP(=O)(OC)OC=C(Cl)Cl [Dichlorvos],0*
18,O=C(OC1CCCCC1)c1ccccc1C(=O)OC1CCCCC1 [Dicyclohexyl phthalate],1
19,C(=NC1CCCCC1)=NC1CCCCC1 [Dicyclohexylcarbodiimide],0*
20,CCCCCCCCCC[N+](C)(C)CCCCCCCCCC.[Cl-] [Didecyldimethylammonium chloride],1

# Same assay, conditions: cited from earlier work
row,SMILES,MMP assay hitCall
1,"Nc1ccc(-c2ccc(N)c(N)c2)cc1N [3,3′-Diaminobenzidine]",1
2,Nc1ccc(N=Nc2ccccc2)cc1 [4-Aminoazobenzene],0
3,CCN(CC)c1ccc2c(C)cc(=O)oc2c1 [7-Diethylamino-4-methylcoumarin],1
4,Oc1cccc2cccnc12 [8-Hydroxyquinoline],0
5,Oc1ccc(C(c2ccc(O)cc2)(C(F)(F)F)C(F)(F)F)cc1 [Bisphenol AF],1
6,CN(C)NC(=O)CCC(=O)O [Daminozide],0
